{"source": "PubChem BioAssay AID1963847", "about": "(Molecular Pharmacology Branch, DTP, NCI, 2024)", "tested_on": "415267-285-R-J2-PDC complex spheroid viability", "assay": "Anticancer human tumor 415267-285-R-J2-PDC patient-derived breast carcinoma cell line growth inhibition [POLQ]", "settings": "for viability, T/C: stronger effect = lower value", "description": "Multicellular complex tumor spheroid response to Polymerase (POL) inhibitors (novobiocin, ART-558, RP6685) in combination with a variety of drugs and investigational agents in selected tumor cell lines\nThe POL inhibitors (novobiocin, ART-558, and RP6685) were evaluated both individually and in combination with standard of care and investigational anticancer small molecules within a complex spheroid model of solid tumors. . Complex spheroids include a stromal component modeled by human endothelial cells (HUVEC) and fibroblasts modeled by human mesenchymal stem cells (MSCs). The concentration ranges selected for each drug and investigational agent were based upon clinically achievable concentrations if the clinical Cmax of the agent was known.\nCompounds. The drugs and investigational agents: novobiocin (NSC847541), ART-558 (NSC835418), RP-6685 (NSC848927), peposertib (NSC802822), ceralasertib (NSC780249), elimusertib (NSC800525), camonsertib (NSC841442), AZD-1390 (NSC803789), olaparib (NSC753686), talazoparib (NSC767125), rucaparib (NSC756644), sotorasib (NSC818433), MRTX-1133 (NSC836407), SN-38 (NSC673596), topotecan (NSC609699), epotoside (NSC141540), doxorubicin (NSC123127), gemcitabine (NSC613327), 5-fluorouracil (NSC19893), paclitaxel (NSC125973), vemurafenib (NSC761431), MSA-2 (NSC828583), SN-011 (NSC837082), adavosertib (NSC754352), prexasertib (NSC758257), carboplatin (NSC241240) and oxaliplatin (NSC266046), were obtained from the National Cancer Institute (NCI) Developmental Therapeutics Program Chemical Repository (21). The FDA-approved anticancer drug set is available from the Developmental Therapeutics Program at https://dtp.cancer.gov/organization/dscb/obtaining/. […] The stock solutions were prepared in dimethyl sulfoxide (DMSO, Sigma-Aldrich, St. Louis, MO, cat. D2650), except for the platinum compounds which were prepared in saline (Quality Biological, Gaithersburg, MD, cat. 114-055-101), at 800-fold the tested concentration and stored at -70 degrees C prior to their use. All drugs and investigational agents were tested over a range starting from a high concentration at or near the clinical Cmax and decreasing in half-log increments. If the clinical Cmax for an agent had not been determined, the highest concentration tested was 10 microM, except for SN-38, which was tested at a high concentration of 1 microM.\nCell Culture. All cells were maintained in an incubator at 37 degrees C and 5% CO2 with 95% humidity. The PDC lines were cultured according to standard operating procedures established by the NCI PDMR (https://pdmr.cancer.gov). Table 3 of the manuscript, lists the cell lines along with the number of the three cell types plated to form the mct-spheroids and media for tumor cell growth. After thawing, all PDC lines, except 997537-175-T-J1-PDC and 415267-285-R-J2-PDC, were cultured in Matrigel-coated flasks prepared with a working solution of 1X Ham's F-12 nutrient mix, without supplementation (Thermo Fisher Scientific, cat. 11765054), 100 U/mL penicillin-streptomycin (Thermo Fisher Scientific, cat. 15140122), and 2.5% Matrigel (Corning Inc., Corning, NY, cat. 354248) for the first three passages. The two PDC lines 997537-175-T-J1-PDC and 415267-285-R-J2-PDC were cultured on uncoated flasks. The 857933-349-R-J2-PDC line was cultured in 6C/Colon 1B media containing advanced DMEM/F-12 (Thermo Fisher Scientific, cat. 12634028), 10 mM HEPES (Thermo Fisher Scientific, cat. 15630080), 1X GlutaMAX supplement (Thermo Fisher Scientific, cat. 35050061), 0.1 mg/mL primocin (InvivoGen, San Diego, CA, cat. ant-pm-2), 10% defined fetal bovine serum, heat inactivated (HyClone Laboratories Inc., Logan, UT, cat. SH30070.03HI), 50% L-WRN conditioned media (ATCC, cat. CRL-3276), 1.25 mM N-Acetyl-L-cysteine (Sigma-Aldrich, cat. A9165), 10 mM nicotinamide (Sigma-Aldrich, cat. N0636), 1X B-27 supplement (Thermo Fisher Scientific, cat. 17504044), 1X N-2 supplement (Thermo Fisher Scientific, cat. […]", "note": "Several values for one entry are separate records, joined by “and”; a condition that tells them apart may be missing. Equal entries are not always repeated.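 Further: spheroids exposed to compounds for one week before readout.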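 Wherever viability, T/C is given: luminescence used as stand-in measure of viable cells; 100% = DMSO vehicle control viability.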"}
{"smiles": "O=C(Nc1ccc(O)c(NS(=O)(=O)c2ccc(F)cc2)c1)c1ccc(-c2ccccc2)cc1", "note": "+ Cc1cccc(N(C)C(=O)C2C(O)CCN2c2nc(C)cc(C(F)(F)F)c2C#N)c1", "values": [{"measurement": "IC50", "setting": "curve of first compound, second compound 0.0316 µM", "value": "> 10", "unit": "µM"}, {"measurement": "IC50", "setting": "curve of first compound, second compound 0.1 µM", "value": "> 10", "unit": "µM"}, {"measurement": "IC50", "setting": "curve of first compound, second compound 0.316 µM", "value": "> 10", "unit": "µM"}, {"measurement": "IC50", "setting": "curve of first compound, second compound 1 µM", "value": "> 10", "unit": "µM"}, {"measurement": "IC50", "setting": "curve of first compound, second compound 3.16 µM", "value": "> 10", "unit": "µM"}, {"measurement": "IC50", "setting": "curve of first compound, second compound 10 µM", "value": "> 10", "unit": "µM"}, {"measurement": "viability, T/C", "setting": "second compound 0.0316 µM, first compound 0.0316 µM", "value": 112, "unit": "%"}, {"measurement": "viability, T/C", "setting": "second compound 0.0316 µM, first compound 0.1 µM", "value": 120, "unit": "%"}, {"measurement": "viability, T/C", "setting": "second compound 0.0316 µM, first compound 0.316 µM", "value": 105, "unit": "%"}, {"measurement": "viability, T/C", "setting": "second compound 0.0316 µM, first compound 1 µM", "value": 106, "unit": "%"}, {"measurement": "viability, T/C", "setting": "second compound 0.0316 µM, first compound 3.16 µM", "value": 101, "unit": "%"}, {"measurement": "viability, T/C", "setting": "second compound 0.0316 µM, first compound 10 µM", "value": 63.4, "unit": "%"}, {"measurement": "viability, T/C", "setting": "second compound 0.1 µM, first compound 0.0316 µM", "value": 98.5, "unit": "%"}, {"measurement": "viability, T/C", "setting": "second compound 0.1 µM, first compound 0.1 µM", "value": 101, "unit": "%"}, {"measurement": "viability, T/C", "setting": "second compound 0.1 µM, first compound 0.316 µM", "value": 100, "unit": "%"}, {"measurement": "viability, T/C", "setting": "second compound 0.1 µM, first compound 1 µM", "value": 104, "unit": "%"}, {"measurement": "viability, T/C", "setting": "second compound 0.1 µM, first compound 3.16 µM", "value": 100, "unit": "%"}, {"measurement": "viability, T/C", "setting": "second compound 0.1 µM, first compound 10 µM", "value": 62.7, "unit": "%"}, {"measurement": "viability, T/C", "setting": "second compound 0.316 µM, first compound 0.0316 µM", "value": 109, "unit": "%"}, {"measurement": "viability, T/C", "setting": "second compound 0.316 µM, first compound 0.1 µM", "value": 94.3, "unit": "%"}, {"measurement": "viability, T/C", "setting": "second compound 0.316 µM, first compound 0.316 µM", "value": 93.3, "unit": "%"}, {"measurement": "viability, T/C", "setting": "second compound 0.316 µM, first compound 1 µM", "value": 101, "unit": "%"}, {"measurement": "viability, T/C", "setting": "second compound 0.316 µM, first compound 3.16 µM", "value": 102, "unit": "%"}, {"measurement": "viability, T/C", "setting": "second compound 0.316 µM, first compound 10 µM", "value": 66.9, "unit": "%"}, {"measurement": "viability, T/C", "setting": "second compound 1 µM, first compound 0.0316 µM", "value": 115, "unit": "%"}, {"measurement": "viability, T/C", "setting": "second compound 1 µM, first compound 0.1 µM", "value": 95.5, "unit": "%"}, {"measurement": "viability, T/C", "setting": "second compound 1 µM, first compound 0.316 µM", "value": 109, "unit": "%"}, {"measurement": "viability, T/C", "setting": "second compound 1 µM, first compound 1 µM", "value": 103, "unit": "%"}, {"measurement": "viability, T/C", "setting": "second compound 1 µM, first compound 3.16 µM", "value": 103, "unit": "%"}, {"measurement": "viability, T/C", "setting": "second compound 1 µM, first compound 10 µM", "value": 63.3, "unit": "%"}, {"measurement": "viability, T/C", "setting": "second compound 3.16 µM, first compound 0.0316 µM", "value": 99.2, "unit": "%"}, {"measurement": "viability, T/C", "setting": "second compound 3.16 µM, first compound 0.1 µM", "value": 106, "unit": "%"}, {"measurement": "viability, T/C", "setting": "second compound 3.16 µM, first compound 0.316 µM", "value": 113, "unit": "%"}, {"measurement": "viability, T/C", "setting": "second compound 3.16 µM, first compound 1 µM", "value": 99.3, "unit": "%"}, {"measurement": "viability, T/C", "setting": "second compound 3.16 µM, first compound 3.16 µM", "value": 94.2, "unit": "%"}, {"measurement": "viability, T/C", "setting": "second compound 3.16 µM, first compound 10 µM", "value": 71.6, "unit": "%"}, {"measurement": "viability, T/C", "setting": "second compound 10 µM, first compound 0.0316 µM", "value": 98.1, "unit": "%"}, {"measurement": "viability, T/C", "setting": "second compound 10 µM, first compound 0.1 µM", "value": 106, "unit": "%"}, {"measurement": "viability, T/C", "setting": "second compound 10 µM, first compound 0.316 µM", "value": 114, "unit": "%"}, {"measurement": "viability, T/C", "setting": "second compound 10 µM, first compound 1 µM", "value": 106, "unit": "%"}, {"measurement": "viability, T/C", "setting": "second compound 10 µM, first compound 3.16 µM", "value": 95.3, "unit": "%"}, {"measurement": "viability, T/C", "setting": "second compound 10 µM, first compound 10 µM", "value": 61.7, "unit": "%"}]}
{"smiles": "CCc1c2c(nc3ccc(O)cc13)-c1cc3c(c(=O)n1C2)COC(=O)[C@]3(O)CC", "values": [{"measurement": "viability, T/C", "setting": "compound 0.00316 µM", "value": "32.2% and 58.6% and 31.9%"}, {"measurement": "viability, T/C", "setting": "compound 0.01 µM", "value": "9.97% and 8.74% and 13.6%"}, {"measurement": "viability, T/C", "setting": "compound 0.0316 µM", "value": "5.41% and 4.4% and 6.58%"}, {"measurement": "viability, T/C", "setting": "compound 0.1 µM", "value": "4.94% and 2.95% and 3.9%"}, {"measurement": "viability, T/C", "setting": "compound 0.316 µM", "value": "2.72% and 1.83% and 3.74%"}, {"measurement": "viability, T/C", "setting": "compound 1 µM", "value": "1.69% and 0.99% and 1.42%"}, {"measurement": "IC50", "setting": "curve of compound", "value": "< 0.00316 µM and 0.00385 µM"}]}
{"smiles": "Cc1cccc(N(C)C(=O)C2C(O)CCN2c2nc(C)cc(C(F)(F)F)c2C#N)c1", "note": "(stereo not given)", "values": [{"measurement": "viability, T/C", "setting": "compound 0.0316 µM", "value": "99.1% [middle of 13 runs]"}, {"measurement": "viability, T/C", "setting": "compound 0.1 µM", "value": "100% [middle of 13 runs]"}, {"measurement": "viability, T/C", "setting": "compound 0.316 µM", "value": "102% [middle of 13 runs]"}, {"measurement": "viability, T/C", "setting": "compound 1 µM", "value": "103% [middle of 13 runs]"}, {"measurement": "viability, T/C", "setting": "compound 3.16 µM", "value": "104% [middle of 13 runs]"}, {"measurement": "viability, T/C", "setting": "compound 10 µM", "value": "98.5% [middle of 13 runs]"}, {"measurement": "IC50", "setting": "compound alone, run of 01/08/2024", "value": "> 10", "unit": "µM"}, {"measurement": "IC50", "setting": "compound alone, run of 01/19/2024", "value": "> 10", "unit": "µM"}]}
{"smiles": "COc1cc2cc(C(=O)CCC(=O)O)sc2cc1OC", "values": [{"measurement": "viability, T/C", "setting": "compound 0.0316 µM", "value": "99.2% and 104% and 92.9%"}, {"measurement": "viability, T/C", "setting": "compound 0.1 µM", "value": "101% and 104% and 90.8%"}, {"measurement": "viability, T/C", "setting": "compound 0.316 µM", "value": "93.2% and 88% and 110%"}, {"measurement": "viability, T/C", "setting": "compound 1 µM", "value": "104% (2×) and 99.6%"}, {"measurement": "viability, T/C", "setting": "compound 3.16 µM", "value": "94.7% and 99.9% and 99.6%"}, {"measurement": "viability, T/C", "setting": "compound 10 µM", "value": "111% and 99.6% and 109%"}, {"measurement": "IC50", "setting": "curve of compound", "value": "> 10", "unit": "µM"}]}
{"smiles": "COc1cccc(OCCCN)c1-c1cc(Nc2cnc(C#N)cn2)n[nH]1", "values": [{"measurement": "viability, T/C", "setting": "compound 0.00316 µM", "value": "36.5% and 110% and 99.9%"}, {"measurement": "viability, T/C", "setting": "compound 0.0316 µM", "value": "6.92% and 6.25% and 7.08%"}, {"measurement": "viability, T/C", "setting": "compound 0.1 µM", "value": "6.87% and 6.41% and 5.7%"}, {"measurement": "viability, T/C", "setting": "compound 0.316 µM", "value": "6.1% and 4.51% and 5.49%"}, {"measurement": "viability, T/C", "setting": "compound 1 µM", "value": "4.67% and 5.09% and 3.72%"}, {"measurement": "IC50", "setting": "curve of compound", "value": "< 0.00316 µM and 0.00796 µM and 0.00726 µM"}]}
